Measurements reported in patent publication US20110200535A1, “DAA-PYRIDINE AS PERIPHERAL BENZODIAZEPINE RECEPTOR LIGAND FOR DIAGNOSTIC IMAGING AND PHARMACEUTICAL TREATMENT” (BAYER SCHERING PHARMA AKTIENGESELLSCHAFT, priority 2008, published 2011).

What was measured:
[1] = target: CBR (central diazepine receptor); assay: CBR binding, [^3H]-Flumazenil
PBR = PBR (Homo sapiens, UniProt P30536); assay: PBR binding, [^3H]-PK11195
[2] = target: T1, peripheral benzodiazepine receptor (PBR) (Rattus norvegicus, UniProt P16257); assay: Ex vivo autoradiography of brain sections, rat kainic acid induced epilepsy model; assay type: in vivo; settings: rat kainic acid model, 30 min ex vivo autoradiography
T1 construct: from tissue; host or cells: rat brain (hippocampus, cerebellum) after i.v. tracer injection
Procedure: Using a rat kainic acid induced epilepsy model and respective sham controls the accumulation of [^18F]-2d and [^18F]-5d was visualized ex vivo. In brief, epilepsy was induced in rats by injecting kainic acid i.p. At day eight after the start of the kainic acid treatment [^18F]-2d and [^18F]-5d were injected into the tail vein of the rats and their sham treated controls (PBS instead of kainic acid) at a dose of 25.8-35.8 MBq (approximately 1.0 μg) per rat. Thirty minutes after intravenous injection the rats were sacrificed, the brains were taken out, snap frozen and sliced transversally in a cryostat. The slices were exposed to PhosphoImager plates over night. The resulting autoradiographic signals were analyzed qualitatively and quantitatively (FIG. 2.1 A and C, 2.2 A and C). […] To determine the specificity of the [^18F]-2d and [^18F]-5d binding, kainic acid treated rats were co-injected with [^19F]-2e and [^19F]-5e, respectively.
The autoradiographic signals were quantified. The signal intensity in a hippocampal region of interest (ROI) was measured and compared to a ROI in the cerebellum, that was used as reference region.

Chain of PBR (P30536 whole entry, species assumed): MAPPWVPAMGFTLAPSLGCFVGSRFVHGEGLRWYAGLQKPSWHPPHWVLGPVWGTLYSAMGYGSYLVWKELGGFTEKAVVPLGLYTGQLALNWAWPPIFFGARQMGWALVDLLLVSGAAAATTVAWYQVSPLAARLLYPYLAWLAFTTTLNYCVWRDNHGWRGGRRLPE

Ki [1] [nM]	Ki (PBR) [nM]	Hipp/Cereb ratio (signal-to-background ratio, hippocampus/cerebellum) [2]	SMILES
> 20000	2.57 ± 0.06	5.6±1.8	COc1ccc(OCCF)c(CN(C(C)=O)c2cccnc2Oc2cccc(C)c2C)c1 [[^19F]-5e, N-[2-(2,3-dimethylphenoxy)pyridin-3-yl]-N-[2-(2-fluoroethoxy)-5-methoxybenzyl]acetamide]
> 20000	1.46 ± 0.12	–	CCN(CC)C(=O)Cc1c(-c2ccc(OCCF)cc2)nn2c(C)cc(C)nc12 [[^19F]-DPA-714, reference compound]
> 20000	1.5 ± 0.15	–	COc1ccc(OCCF)c(CN(C(C)=O)c2cc(F)ccc2Oc2ccccc2)c1 [[^19F]-FEDAA1106, reference compound]
